# Test results from patent US20240239792A1, “MODULATORS OF BCL-2 OR BCL-2/BCL-XL AND USES THEREOF” (APPICINE THERAPEUTICS (HK) LIMITED, priority 2021, published 2024).
# Test system: DOHH2 cells
# Test: CellTiter-Glo cell proliferation assay, DOHH2 cells
# Assay type: cell-based
# Conditions: Homo sapiens, DOHH-2, 72 hours
# Protocol: The CellTiter-Glo® Luminescent Cell Viability Assay (Promega, G7573) was used to study the cellular potency of disclosed compounds herein. The cells were harvested during the logarithmic growth period and counted with hemocytometer. The DOHH2 cells were seeded at 1.6*10^4 in 90 ul DMEM medium supplemented with 10% fetal bovine serum (FBS) (as RS4;11 cells were seeded at 4000 in 90 ul RPMI-1640 medium with 10% FBS) per well in 96-well plates and treated with 10 ul of a serial dilution of compounds disclosed herein (maximum concentration and dilution ratio determined by the results of pre-experiment may vary) for 72 hours in a 5% CO2 incubator at 37° C. Cell viability was assessed according to the manufacturer's recommendations. After the plates return to the room temperature, 100 ul of CellTiter-Glo® reagent was added to 100 ul of cell culture. The mixture was agitated on an orbital shaker for 2 minutes or placed it at room temperature for 10 minutes to allow cell lysis and stabilization of luminescent signals. Luminescent signals were recorded using Envision 2104 instrument. And GI50 values were then calculated.
row,SMILES,GI50 [nM]
1,"O=C(NS(=O)(=O)c1ccc(NCC2CCOCC2)c([N+](=O)[O-])c1)c1ccc(N2CCN(C3CCCc4ccccc43)CC2)cc1Oc1cnc2[nH]ccc2c1 (stereo not shown) [Compound 2, 2-((1H-pyrrolo[2,3-b]pyridin-5-yl)oxy)-N-((3-nitro-4-(((tetrahydro-2H-pyran-4-yl)methyl)amino)phenyl)sulfonyl)-4-(4-(1,2,3,4-tetrahydronaphthalen-1-yl)piperazin-1-yl)benzamide]",> 5000
2,"CC1(C)CCC2(CC1)CC(CNc1ccc(S(=O)(=O)NC(=O)c3ccc(N4CCN([C@@H]5CCCCc6c(Cl)cccc65)CC4)cc3Oc3cnc4[nH]ccc4c3)cc1[N+](=O)[O-])C2 [Compound 136, (R)-2-((1H-pyrrolo[2,3-b]pyridin-5-yl)oxy)-4-(4-(1-chloro-6,7,8,9-tetrahydro-5H-benzo[7]annulen-5-yl)piperazin-1-y1)-N-((4-(((7,7-dimethylspiro[3.5]nonan-2-yl)methyl)amino)-3-nitrophenyl)sulfonyl)benzamide]",> 5000

# Target: T1, BCL-2 (Homo sapiens, UniProt P10415)
# T1 construct: purchased Cisbio 63ADK000CB01PEG
# Test: HTRF BCL-2/BAK assay (Cisbio)
# Assay type: binding
# Conditions: recombinant human Tag1-BCL-2 2 nM, Tag2-BAK 10 nM
# Protocol: Then the pre-mixed anti-Tag1-Eu^3+ and anti-tag2-XL665 were added to the plate and further incubated at room temperature for another 2 hours. The signals ([…]) were read on Envision 2104 instrument. The IC50 for each compound was derived from fitting the signal of 665/615 nM to the increasing compound concentration.
# Using the above assays, the following compounds were tested.
# T1 sequence (P10415 whole entry): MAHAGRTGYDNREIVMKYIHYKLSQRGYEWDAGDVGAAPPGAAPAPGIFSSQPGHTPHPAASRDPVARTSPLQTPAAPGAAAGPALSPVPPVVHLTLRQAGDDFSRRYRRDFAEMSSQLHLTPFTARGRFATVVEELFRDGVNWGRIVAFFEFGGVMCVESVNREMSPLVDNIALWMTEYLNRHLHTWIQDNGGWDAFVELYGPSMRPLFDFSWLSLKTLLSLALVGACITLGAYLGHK
row,SMILES,IC50 [nM]
1,"O=C(NS(=O)(=O)c1cccc([N+](=O)[O-])c1)c1ccc(N2CCN(C3CCOc4ccccc43)CC2)cc1Oc1cnc2[nH]ccc2c1 (stereo not shown) [Compound 9, 2-((1H-pyrrolo[2,3-b]pyridin-5-yl)oxy)-4-(4-(chroman-4-yl)piperazin-1-yl)-N-((3-nitrophenyl)sulfonyl)benzamide]",200 to 2000
2,"O=C(NS(=O)(=O)c1cccc([N+](=O)[O-])c1)c1ccc(N2CCN(C3CCCc4cccc(-c5ccsc5)c43)CC2)cc1Oc1cnc2[nH]ccc2c1 (stereo not shown) [Compound 11, 2-((1H-pyrrolo[2,3-b]pyridin-5-yl)oxy)-N-((3-nitrophenyl)sulfonyl)-4-(4-(8-(thiophen-3-yl)-1,2,3,4-tetrahydronaphthalen-1-yl)piperazin-1-yl)benzamide]",200 to 2000
3,"O=C(NS(=O)(=O)c1cccc([N+](=O)[O-])c1)c1ccc(N2CCN(C3CCCc4cccc(-c5cccc(Cl)c5)c43)CC2)cc1Oc1cnc2[nH]ccc2c1 (stereo not shown) [Compound 14, 2-((1H-pyrrolo[2,3-b]pyridin-5-yl)oxy)-4-(4-(8-(3-chlorophenyl)-1,2,3,4-tetrahydronaphthalen-1-yl)piperazin-1-yl)-N-((3-nitrophenyl)sulfonyl)benzamide]",200 to 2000
4,"O=C(NS(=O)(=O)c1cccc([N+](=O)[O-])c1)c1ccc(N2CCN(C3CCCc4cccc(-c5cccs5)c43)CC2)cc1Oc1cnc2[nH]ccc2c1 (stereo not shown) [Compound 15, 2-((1H-pyrrolo[2,3-b]pyridin-5-yl)oxy)-N-((3-nitrophenyl)sulfonyl)-4-(4-(8-(thiophen-2-yl)-1,2,3,4-tetrahydronaphthalen-1-yl)piperazin-1-yl)benzamide]",200 to 2000

# Next, values leading:
row,IC50 [nM],SMILES
1,200 to 2000,"O=C(NS(=O)(=O)c1cccc([N+](=O)[O-])c1)c1ccc(N2CCN(C3CCCc4ccccc43)CC2)cc1Oc1cnc2[nH]ccc2c1 (stereo not shown) [Compound 1, 2-((1H-pyrrolo[2,3-b]pyridin-5-yl)oxy)-N-((3-nitrophenyl)sulfonyl)-4-(4-(1,2,3,4-tetrahydronaphthalen-1-yl)piperazin-1-yl)benzamide]"
2,20 to 200,"O=C(NS(=O)(=O)c1ccc(NCC2CCOCC2)c([N+](=O)[O-])c1)c1ccc(N2CCN(C3CCCc4ccccc43)CC2)cc1Oc1cnc2[nH]ccc2c1 (stereo not shown) [Compound 2, 2-((1H-pyrrolo[2,3-b]pyridin-5-yl)oxy)-N-((3-nitro-4-(((tetrahydro-2H-pyran-4-yl)methyl)amino)phenyl)sulfonyl)-4-(4-(1,2,3,4-tetrahydronaphthalen-1-yl)piperazin-1-yl)benzamide]"
3,200 to 2000,"O=C(NS(=O)(=O)c1cccc([N+](=O)[O-])c1)c1ccc(N2CCN(C3CCc4ccccc43)CC2)cc1Oc1cnc2[nH]ccc2c1 (stereo not shown) [Compound 3, 2-((1H-pyrrolo[2,3-b]pyridin-5-yl)oxy)-4-(4-(2,3-dihydro-1H-inden-1-yl)piperazin-1-yl)-N-((3-nitrophenyl)sulfonyl)benzamide]"
4,200 to 2000,"O=C(NS(=O)(=O)c1cccc([N+](=O)[O-])c1)c1ccc(N2CCN(C3CCCc4cccc(-c5ccccc5)c43)CC2)cc1Oc1cnc2[nH]ccc2c1 (stereo not shown) [Compound 8, 2-((1H-pyrrolo[2,3-b]pyridin-5-yl)oxy)-N-((3-nitrophenyl)sulfonyl)-4-(4-(8-phenyl-1,2,3,4-tetrahydronaphthalen-1-yl)piperazin-1-yl)benzamide]"
